Test results from patent US11072634B2, “Inhibitors of transglutaminases” (Zedira GmbH, priority 2016, dated 2021).
Where a SMILES comes first, the peptide text is derived from it. [ ]: non-standard residue; d: D form. The star is where a group is joined. Nle(5,6-dioxo,6-NHMe) = CNC(=O)C(=O)CC[C@H](N)C(=O)O; Tic = O=C(O)[C@@H]1Cc2ccccc2CN1; X8 = CC1(C)CC(CC(=O)*)C(=O)O1

What follows are compounds tested against T1, recombinant human tissue transglutaminase (rhTG2) (Homo sapiens, UniProt P21980) (assay: Inhibition of rec. human tissue transglutaminase (fluorescence, Abz-APE(CAD-DNP)QEA-OH)). Conditions: Table 2, TG2 inhibitors.
T1 construct: purchased Zedira 1022 (so in the source); T022)
T1 sequence (P21980 1-687): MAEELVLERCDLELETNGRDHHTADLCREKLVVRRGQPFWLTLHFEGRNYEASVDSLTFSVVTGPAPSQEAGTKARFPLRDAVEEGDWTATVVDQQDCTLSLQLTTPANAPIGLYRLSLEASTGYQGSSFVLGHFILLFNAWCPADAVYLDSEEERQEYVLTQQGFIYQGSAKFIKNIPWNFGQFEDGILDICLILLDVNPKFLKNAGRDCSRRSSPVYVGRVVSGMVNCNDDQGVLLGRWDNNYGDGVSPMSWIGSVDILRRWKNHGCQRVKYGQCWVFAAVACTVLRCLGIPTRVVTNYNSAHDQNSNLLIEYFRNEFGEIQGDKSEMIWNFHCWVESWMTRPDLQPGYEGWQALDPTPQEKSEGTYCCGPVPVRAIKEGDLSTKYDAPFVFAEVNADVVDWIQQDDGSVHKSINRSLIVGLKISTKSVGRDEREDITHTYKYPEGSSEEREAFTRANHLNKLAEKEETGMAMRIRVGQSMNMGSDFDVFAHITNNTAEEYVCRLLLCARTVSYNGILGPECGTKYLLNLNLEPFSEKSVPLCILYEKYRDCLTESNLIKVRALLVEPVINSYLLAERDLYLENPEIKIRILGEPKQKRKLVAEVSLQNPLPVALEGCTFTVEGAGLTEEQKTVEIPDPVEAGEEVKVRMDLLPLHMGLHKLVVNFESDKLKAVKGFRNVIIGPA
Format: biochemical
Procedure: Method for Inhibition Studies of Rec. Human Tissue Transglutaminase (rhTG2)
250 μg lyophilized His-tagged recombinant human tissue transglutaminase (His6-rhTG2, Zedira product 1022) is reconstituted in H2O (volume depends on original volume before lyophilization) resulting in a buffer containing 10 mM Tris-HCl, 150 mM NaCl, 1 mM EDTA, 5 mM DTT, 189 mg/ml maltodextrin, pH=8.1. The rhTG2 stock solution is diluted in buffer (50 mM Tris-HCl, 7.5 mM CaCl2, 150 mM NaCl, pH=7.4) to give a working solution of 100 U/ml (based on the amine-incorporation activity measured using T036, described below).
A 10 mM inhibitor stock solution is prepared in DMSO, and from this stock solution a serial 1:2-fold dilution series is prepared, also in DMSO. Each of these initial dilutions is subsequently diluted 1:50-fold with buffer (50 mM Tris-HCl, 7.5 mM CaCl2, 150 mM NaCl, pH=7.4) to yield the final working dilutions containing 2% (v/v) DMSO. 15 μl of inhibitor working dilution are added per well of a 96 well microtiter plate. As control, 15 μl of a 2% (v/v) DMSO solution prepared using the buffer mentioned above are added per well.
600 μl of His6-rhTG2 working solution are added to 11.4 ml assay buffer (50 mM Iris-HCl, 7.5 mM CaCl2, 150 mM NaCl, 5 mM DTI, 13.4 mM glycine methylester, 50 μM Abz-APE(CAD-DNP)QEA-OH, (Zedira product A102; patent No.: EP 1781807B1), pH=7.4). From this master-mix solution, 285 μl are added per well containing the inhibitor. Increase in fluorescence is measured using λex=313 nm and λem=418 nm at 37° C. for 20 min. A slope of the increase in fluorescence between 10 and 20 min is calculated for determination of the IC50 value (inhibitor concentration at which 50% of the initial TG2 activity is blocked).
Analysis of enzymatic activity is performed by calculation of the slope of an increase in fluorescence intensity. IC50 values are calculated by plotting the enzymatic activity (as percentage from control containing 2% DMSO instead of inhibitor) against the inhibitor concentration. IC50 is defined as the inhibitor concentration blocking 50%) of initial enzyme activity.

Row | SMILES | IC50 [nM]
1 | CNC(=O)C(=O)CCC[C@H](NC(=O)c1cncn1C)C(=O)Nc1ccc(S(=O)(=O)N2CCN(C)CC2)cc1 [Compound E72, (S)—N1-methyl-6-(1-methyl-1H-imidazole-5-carboxamido)-N7-(4-(4-methylpiperazin-1-ylsulfonyl)phenyl)-2-oxoheptanediamide] | 6300
2 | CCC(CC)CNC(=O)Cn1cccc(NC(=O)[C@H](CCC(=O)C(=O)NCC(=O)OC)NC(=O)c2cncn2C)c1=O [Compound E38, (S)-methyl 2-(6-(1-(2-(2-ethylbutylamino)-2-oxoethyl)-2-oxo-1,2-dihydropyridin-3-ylamino)-5-(1-methyl-1H-imidazole-5-carboxamido)-2,6-dioxohexanamido)acetat] | 700
3 | CCC(CC)CNC(=O)Cn1cccc(NC(=O)[C@H](CCC(=O)C(=O)NCc2ccccc2)NC(=O)c2cncn2C)c1=O [Compound E20, (S)—N1-benzyl-N6-(1-(2-(2-ethylbutylamino)-2-oxoethyl)-2-oxo-1,2-dihydropyridin-3-yl)-5-(1-methyl-1H-imidazole-5-carboxamido)-2-oxonexanediamide] | 600
4 | CCC(CC)CNC(=O)Cn1cccc(NC(=O)[C@H](CCC(=O)C(=O)NCS(=O)(=O)c2ccc(C)cc2)NC(=O)c2cncn2C)c1=O [Compound E41, (S)—N1-(1-(2-(2-ethylbutylamino)-2-oxoethyl)-2-oxo-1,2-dihydropyridin-3-yl)-2-(1-methyl-1H-imidazole-5-carboxamido)-5-oxo-N6-(tosylmethyl)hexanediamide] | 1450
5 | CCC(CC)CNC(=O)Cn1cc(Cl)cc(NC(=O)[C@H](CCC(=O)C(=O)NC)NC(=O)c2cncn2C)c1=O [Compound E45, (S)—N1-(5-chloro-1-(2-(2-ethylbutylamino)-2-oxoethyl)-2-oxo-1,2-dihydropyridin-yl)-N6-methyl-2-(1-methyl-1H-imidazole-5-carboxamido)-5-oxohexanediamide] | 75
6 | CCC(CC)CNC(=O)Cn1cccc(NC(=O)[C@H](CCC(=O)C(=O)OCCOC)NC(=O)c2cncn2C)c1=O [Compound E78, (S)-2-methoxyethyl 6-(1-(2-(2-ethylbutylamino)-2-oxoethyl)-2-oxo-1,2-dihydropyridin-3-ylamino)-5-(1-methyl-1H-imidazole-5-carboxamido)-2,6-dioxohexanoate] | 400
7 | CNC(=O)C(=O)CC[C@H](NC(=O)CC1CC(C)(C)OC1=O)C(=O)N[C@@H](Cc1c[nH]cn1)C(=O)N[C@@H](Cc1ccc(O)cc1)C(=O)N1Cc2ccccc2C[C@H]1C(N)=O (stereo partly drawn) [Compound E82, (2S)-N1-((S)-1-((S)-1-((S)-3-carbamoyl-3,4-dihydroisoquinolin-2(1H)-yl)-3-(4-hydroxy-phenyl)-1-oxopropan-2-ylamino)-3-(1H-imidazol-4-yl)-1-oxopropan-2-yl)-2-(2-(5,5-dimethyl-2-oxotetrahydrofuran-3-yl)acetamido)-N6-methyl-5-oxohexanediamide] (X8-[Nle(5,6-dioxo,6-NHMe)]HY[Tic]-NH2) | 1350
8 | CCC(CC)CNC(=O)Cn1cccc(NC(=O)[C@H](CCC(=O)C(=O)NC)NC(=S)Nc2ccccc2)c1=O [Compound E70, (S)—N1-(1-(2-(2-ethylbutylamino)-2-oxoethyl)-2-oxo-1,2-dihydropyridin-3-yl)-N6-methyl-5-oxo-2-(3-phenylthioureido)hexanediamide] | 265
9 | CCC(CC)CNC(=O)Cn1cc(Br)cc(NC(=O)[C@H](CCC(=O)C(=O)NC)NC(=O)c2cncn2C)c1=O [Compound E46, (S)—N1-(5-bromo-1-(2-(2-ethylbutylamino)-2-oxoethyl)-2-oxo-1,2-dihydropyridin-3-yl)-N6-methyl-2-(1-methyl-1H-imidazole-5-carboxamido)-5-oxohexanediamide] | 95
10 | CCC(CC)CNC(=O)Cn1cccc(NC(=O)[C@H](CCC(=O)C(=O)c2ccccc2)NC(=O)c2cncn2C)c1=O [Compound E76, (S)—N-(1-(1-(2-(2-ethylbutylamino)-2-oxoethyl)-2-oxo-1,2-dihydropyridin-3-ylamino)-1,5,6-trioxo-6-phenylhexan-2-yl)-1-methyl-1H-imidazole-5-carboxamide] | 550
11 | CCC(CC)CNC(=O)Cn1cccc(NC(=O)[C@H](CCC(=O)C(N)=O)NC(=O)c2ccccc2)c1=O [Compound E12, (S)-2-benzamido-N1-(1-(2-(2-ethylbutylamino)-2-oxoethyl)-2-oxo-1,2-dihydropyridin-3-yl)-5-oxonexanediamide] | 950
12 | CCC(CC)CNC(=O)Cn1cccc(NC(=O)[C@H](CCC(=O)C(=O)NC)NC(=O)C2CCN(C)CC2)c1=O [Compound E63, (S)—N1-(1-(2-(2-ethylbutylamino)-2-oxoethyl)-2-oxo-1,2-dihydropyridin-3-yl)-N6-methyl-2-(1-methylpiperidine-4-carboxamido)-5-oxohexanediamide] | 80
13 | CCC(CC)CNC(=O)Cn1cccc(NC(=O)[C@H](CCC(=O)C(=O)NC)NS(=O)(=O)c2sc(C)nc2C)c1=O [Compound E66, (S)-2-(2,4-dimethylthiazole-5-sulfonamido)-N1-(1-(2-(2-ethylbutylamino)-2-oxoethyl)-26 oxo-1,2-dihydropyridin-3-yl)-N6-methyl-5-oxohexanediamide] | 120
14 | CCC(CC)CNC(=O)Cn1cccc(NC(=O)[C@H](CCC(=O)C(=O)NC)NC(=O)CCC(=O)O)c1=O [Compound E59, (S)-4-(1-(1-(2-(2-ethylbutylamino)-2-oxoethyl)-2-oxo-1,2-dihydropyridin-3-ylamino)-6-(methylamino)-1,5,6-trioxohexan-2-ylamino)-4-oxobutanoic acid] | 625
15 | CCCCCNC(=O)C(=O)CC[C@H](NC(=O)c1cncn1C)C(=O)Nc1cccn(CC(=O)NCC(CC)CC)c1=O [Compound E18, (S)—N1-(1-(2-(2-ethylbutylamino)-2-oxoethyl)-2-oxo-1,2-dihydropyridin-3-yl)-2-(1-methyl-1H-imidazole-5-carboxamido)-5-oxo-N6-pentylnexanediamide] | 125
16 | CCC(CC)CNC(=O)Cn1cccc(NC(=O)[C@H](CCC(=O)C(=O)NC2CC2)NC(=O)c2ccccc2)c1=O [Compound E23, (S)-2-benzamido-N6-cyclopropyl-N1-(1-(2-(2-ethylbutylamino)-2-oxoethyl)-2-oxo-1,2-dihydropyridin-3-yl)-5-oxonexanediamide] | 1100
17 | CCC(CC)CNC(=O)Cn1cccc(NC(=O)[C@H](CCC(=O)C(=O)NC)NS(=O)(=O)c2nccn2C)c1=O [Compound E68, (S)—N1-(1-(2-(2-ethylbutylamino)-2-oxoethyl)-2-oxo-1,2-dihydropyridin-3-yl)-N6-methyl-2-(1-methyl-1H-imidazole-2-sulfonamido)-5-oxohexanediamide] | 150
18 | CCC(CC)CNC(=O)Cn1cccc(NC(=O)[C@H](CCC(=O)C(=O)Nc2cncs2)NC(=O)c2cncn2C)c1=O [Compound E40, (S)—N1-(1-(2-(2-ethylbutylamino)-2-oxoethyl)-2-oxo-1,2-dihydropyridin-3-yl)-2-(1-methyl-1H-imidazole-5-carboxamido)-5-oxo-N6-(thiazol-5-yl)hexanediamide] | 500
19 | CCC(CC)CNC(=O)Cn1cccc(NC(=O)[C@H](CCC(=O)C(=O)NC)NC(=O)c2cncnc2)c1=O [Compound E64, (S)—N1-(1-(2-(2-ethylbutylamino)-2-oxoethyl)-2-oxo-1,2-dihydropyridin-3-yl)-N6-methyl-5-oxo-2-(pyrimidine-5-carboxamido)hexanediamide] | 95
